According to patent US20220409620A1, “REDUCING IMMUNOGENICITY TO PEGLOTICASE” (Horizon Pharma Rheumatology LLC, priority 2016, published 2022):

Tested on: adult patients with uncontrolled gout
Assay: Serum uric acid (sUA) levels and sUA responder rate, open-label study of pegloticase with MTX (MIRROR OL)
Type: in vivo, human
Conditions: Month 6 sUA Responders
Description: The primary objective is to estimate the response rate during Month 6 (Weeks 20, 22, and 24), as measured by the sustained normalization of serum uric acid (SUA) to <6 mg/dL for at least 80% of the time during Month 6 in subjects receiving KXX with MTX.
The primary efficacy outcome endpoint is the sustained normalization of SUA to <6 mg/dL for at least 80% of the time during month 6 (weeks 20, 22, and 24) in subjects receiving KXX with MTX. […] Participants who achieve this endpoint were classified as “responders.” Serum uric acid (SUA) responders may also be defined as participants achieving and maintaining SUA <6 mg/dL for at least 80% of the time during Month 6 (Weeks 20, 22, and 24).
Blood samples may be collected prior to each pegloticase infusion for measurement of SUA levels using the Beckman Coulter AU System Uric Acid procedure. Participants were declared “non-responders” if there were SUA measures >6 mg/dL at 2 consecutive study visits beginning with the week 2 visit. […] This assumption and subsequent discontinuation of pegloticase was consistent with the protocol of large phase III randomized controlled trials and the product label. A formal stopping rule was 2 occasions of SUA levels of greater than 6 mg/dL.
Clinical Chemistry—Blood samples were collected prior to each pegloticase infusion for measurement of SUA levels (primary efficacy parameter) using the Beckman Coulter AU System Uric Acid procedure. In this procedure uric acid is converted to hydrogen peroxide. Hydrogen peroxide reacts with reagent to produce a chromophore which is read bichromatically at 660/800 nm. The amount of dye formed is proportional to the uric acid concentration in the sample.
Serum samples for measurement of SUA levels were collected at the Screening Visit, the Week −4 Visit (prior to the first dose of MTX), and the Week −2 Visit during the MTX Run-in Period; within 48 hours prior to each pegloticase infusion and after the end of each pegloticase infusion prior to discharge from the site during the Pegloticase+IMM Period; at the non-infusion Week 52/End of Study/Early Termination Visits and at the Post Treatment 3 and 6 Month Follow-up Visits. Additional serum samples for SUA levels were collected at optional non-infusion (Frequent Sampling) Visits at Weeks 1 and 7. […] Subjects with SUA level >6 mg/dL at 2 consecutive visits beginning at Week 2 visit discontinued treatment, completed the End of Pegloticase Infusion Visit procedures within 2 weeks and continued the subject visits according to the protocol (without treatment).
Efficacy analyses were performed using the modified intention-to-treat (mITT) population, defined as all enrolled subjects who received ≥1 dose of pegloticase. The proportion of Month 6 responders was summarized, along with a 95% confidence interval for the proportion. The proportion of Month 3 and overall (Months 3 and 6 combined) responders was analyzed similarly.
A subject was declared a non-responder if the subject had SUA level >6 mg/dL at 2 consecutive study visits beginning with the Week 2 Visit. In addition, a subject who withdraws from study treatment for any reason after the first dose of pegloticase in the KXX+MTX Period and prior to Month 6 (for the primary endpoint) or Month 3 (for the secondary endpoint) was considered a non-responder if SUA values were not collected at the planned time points.
Patients were administered oral MTX (15 mg/week) and folate (1 mg/day) 4 weeks prior to the first pegloticase infusion (Day 1) and throughout the pegloticase treatment period. Blood was drawn prior to each infusion to measure sUA level, monitor clinical parameters, and examine for ADA development. All patients followed typical IR prophylaxis protocols (fexofenadine one day before and the morning of each infusion and acetaminophen and IV corticosteroid the morning of each infusion).

pegloticase
Serum Uric Acid, Observed, Mean (SD) (Week 28-Pre-Infusion, n=8): 0.30 (0.000) mg/dL | Serum Uric Acid, Observed, Median (Week 28-Pre-Infusion, n=8): 0.30 mg/dL | sUA <6 mg/dL, n (%) (Week 28-Pre-Infusion, n=8): 8 (100%) | Serum Uric Acid, Change from Baseline, Mean (SD) (Week 30-Pre-Infusion, n=8): −9.11 (3.293) mg/dL | Serum Uric Acid, Change from Baseline, Median (Week 30-Pre-Infusion, n=8): -8.95 mg/dL | Serum Uric Acid, Observed, Mean (SD) (Week 30-Pre-Infusion, n=8): 0.30 (0.000) mg/dL | Serum Uric Acid, Observed, Median (Week 30-Pre-Infusion, n=8): 0.30 mg/dL | sUA <6 mg/dL, n (%) (Week 30-Pre-Infusion, n=8): 8 (100%) | Serum Uric Acid, Change from Baseline, Mean (SD) (Week 32-Post-Infusion, n=8): −9.11 (3.293) mg/dL | Serum Uric Acid, Change from Baseline, Median (Week 32-Post-Infusion, n=8): -8.95 mg/dL | Serum Uric Acid, Observed, Mean (SD) (Week 32-Post-Infusion, n=8): 0.30 (0.000) mg/dL | Serum Uric Acid, Observed, Median (Week 32-Post-Infusion, n=8): 0.30 mg/dL | sUA <6 mg/dL, n (%) (Week 32-Post-Infusion, n=8): 8 (100%) | Serum Uric Acid, Change from Baseline, Mean (SD) (Week 32-Pre-Infusion, n=10): −8.99 (2.961) mg/dL | Serum Uric Acid, Change from Baseline, Median (Week 32-Pre-Infusion, n=10): -8.95 mg/dL | Serum Uric Acid, Observed, Mean (SD) (Week 32-Pre-Infusion, n=10): 0.30 (0.000) mg/dL | Serum Uric Acid, Observed, Median (Week 32-Pre-Infusion, n=10): 0.30 mg/dL | sUA <6 mg/dL, n (%) (Week 32-Pre-Infusion, n=10): 10 (100%) | Serum Uric Acid, Change from Baseline, Mean (SD) (Week 34-Post-Infusion, n=8): −9.11 (3.293) mg/dL | Serum Uric Acid, Change from Baseline, Median (Week 34-Post-Infusion, n=8): -8.95 mg/dL | Serum Uric Acid, Observed, Mean (SD) (Week 34-Post-Infusion, n=8): 0.30 (0.000) mg/dL | Serum Uric Acid, Observed, Median (Week 34-Post-Infusion, n=8): 0.30 mg/dL | sUA <6 mg/dL, n (%) (Week 34-Post-Infusion, n=8): 8 (100%) | Serum Uric Acid, Change from Baseline, Mean (SD) (Week 34-Pre-Infusion, n=10): −8.47 (3.248) mg/dL | Serum Uric Acid, Change from Baseline, Median (Week 34-Pre-Infusion, n=10): -7.95 mg/dL | Serum Uric Acid, Observed, Mean (SD) (Week 34-Pre-Infusion, n=10): 0.82 (1.046) mg/dL | Serum Uric Acid, Observed, Median (Week 34-Pre-Infusion, n=10): 0.30 mg/dL | sUA <6 mg/dL, n (%) (Week 34-Pre-Infusion, n=10): 10 (100%) | Serum Uric Acid, Change from Baseline, Mean (SD) (Week 36-Post-Infusion, n=6): −9.38 (3.799) mg/dL | Serum Uric Acid, Change from Baseline, Median (Week 36-Post-Infusion, n=6): -9.20 mg/dL | Serum Uric Acid, Observed, Mean (SD) (Week 36-Post-Infusion, n=6): 0.30 (0.000) mg/dL | Serum Uric Acid, Observed, Median (Week 36-Post-Infusion, n=6): 0.30 mg/dL | sUA <6 mg/dL, n (%) (Week 36-Post-Infusion, n=6): 6 (100%) | Serum Uric Acid, Change from Baseline, Mean (SD) (Week 36-Pre-Infusion, n=9): −7.90 (4.094) mg/dL | Serum Uric Acid, Change from Baseline, Median (Week 36-Pre-Infusion, n=9): -8.60 mg/dL | Serum Uric Acid, Observed, Mean (SD) (Week 36-Pre-Infusion, n=9): 1.58 (2.425) mg/dL | Serum Uric Acid, Observed, Median (Week 36-Pre-Infusion, n=9): 0.30 mg/dL | sUA <6 mg/dL, n (%) (Week 36-Pre-Infusion, n=9): 8 ( 88.9%) | Serum Uric Acid, Change from Baseline, Mean (SD) (Week 38-Pre-Infusion, n=5): −8.41 (5.229) mg/dL | Serum Uric Acid, Change from Baseline, Median (Week 38-Pre-Infusion, n=5): -8.60 mg/dL | Serum Uric Acid, Observed, Mean (SD) (Week 38-Pre-Infusion, n=5): 0.93 (1.583) mg/dL | Serum Uric Acid, Observed, Median (Week 38-Pre-Infusion, n=5): 0.30 mg/dL | sUA <6 mg/dL, n (%) (Week 38-Pre-Infusion, n=5): 5 (100%) | Serum Uric Acid, Change from Baseline, Mean (SD) (Week 40-Pre-Infusion, n=3): −11.30 (3.686) mg/dL | Serum Uric Acid, Change from Baseline, Median (Week 40-Pre-Infusion, n=3): -9.80 mg/dL | Serum Uric Acid, Observed, Mean (SD) (Week 40-Pre-Infusion, n=3): 0.30 (0.000) mg/dL | Serum Uric Acid, Observed, Median (Week 40-Pre-Infusion, n=3): 0.30 mg/dL | sUA <6 mg/dL, n (%) (Week 40-Pre-Infusion, n=3): 3 (100%) | Serum Uric Acid, Change from Baseline, Mean (SD) (Week 42-Pre-Infusion, n=3): −11.30 (3.686) mg/dL | Serum Uric Acid, Change from Baseline, Median (Week 42-Pre-Infusion, n=3): -9.80 mg/dL | Serum Uric Acid, Observed, Mean (SD) (Week 42-Pre-Infusion, n=3): 0.30 (0.000) mg/dL | Serum Uric Acid, Observed, Median (Week 42-Pre-Infusion, n=3): 0.30 mg/dL | sUA <6 mg/dL, n (%) (Week 42-Pre-Infusion, n=3): 3 (100%) | Serum Uric Acid, Change from Baseline, Mean (SD) (Week 44-Pre-Infusion, n=3): −10.55 (4.625) mg/dL | Serum Uric Acid, Change from Baseline, Median (Week 44-Pre-Infusion, n=3): -9.80 mg/dL | Serum Uric Acid, Observed, Mean (SD) (Week 44-Pre-Infusion, n=3): 1.05 (1.305) mg/dL | Serum Uric Acid, Observed, Median (Week 44-Pre-Infusion, n=3): 0.30 mg/dL | sUA <6 mg/dL, n (%) (Week 44-Pre-Infusion, n=3): 3 (100%) | Serum Uric Acid, Change from Baseline, Mean (SD) (Week 46-Pre-Infusion, n=2): −12.65 (4.031) mg/dL | Serum Uric Acid, Change from Baseline, Median (Week 46-Pre-Infusion, n=2): -12.65 mg/dL | Serum Uric Acid, Observed, Mean (SD) (Week 46-Pre-Infusion, n=2): 0.30 (0.000) mg/dL | Serum Uric Acid, Observed, Median (Week 46-Pre-Infusion, n=2): 0.30 mg/dL | sUA <6 mg/dL, n (%) (Week 46-Pre-Infusion, n=2): 2 (100%)
